Measurements reported in ChEMBL document CHEMBL1140730, “Validation of diacyl glycerolacyltransferase I as a novel target for the treatment of obesity and dyslipidemia using a potent and selective small molecule inhibitor” (J Med Chem, 2008).
pIC50: −log10 of the molar value.

Columns and labels:
[1] = target: T1, Diacylglycerol O-acyltransferase 1 (Mus musculus, UniProt Q9Z2A7); test: Inhibition of mouse recombinant DGAT1 expressed in Sf9 cells
T1 sequence (Q9Z2A7 whole entry): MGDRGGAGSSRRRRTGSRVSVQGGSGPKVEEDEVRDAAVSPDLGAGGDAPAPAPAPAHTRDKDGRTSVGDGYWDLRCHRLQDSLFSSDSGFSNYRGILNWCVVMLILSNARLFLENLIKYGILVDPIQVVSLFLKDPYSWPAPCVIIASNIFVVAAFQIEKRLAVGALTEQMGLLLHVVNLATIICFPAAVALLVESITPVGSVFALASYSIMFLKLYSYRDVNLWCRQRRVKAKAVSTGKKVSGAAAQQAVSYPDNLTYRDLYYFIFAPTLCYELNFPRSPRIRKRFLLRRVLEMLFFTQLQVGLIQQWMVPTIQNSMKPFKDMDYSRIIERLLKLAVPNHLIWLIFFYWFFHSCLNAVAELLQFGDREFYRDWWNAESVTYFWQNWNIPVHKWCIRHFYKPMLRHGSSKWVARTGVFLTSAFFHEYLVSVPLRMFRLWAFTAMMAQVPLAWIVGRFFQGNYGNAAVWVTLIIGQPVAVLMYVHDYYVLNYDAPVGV

[2] = target: T2, Diacylglycerol O-acyltransferase 1 (Homo sapiens, UniProt O75907); test: Inhibition of human recombinant DGAT1 expressed in Sf9 cells
T2 sequence (O75907 whole entry): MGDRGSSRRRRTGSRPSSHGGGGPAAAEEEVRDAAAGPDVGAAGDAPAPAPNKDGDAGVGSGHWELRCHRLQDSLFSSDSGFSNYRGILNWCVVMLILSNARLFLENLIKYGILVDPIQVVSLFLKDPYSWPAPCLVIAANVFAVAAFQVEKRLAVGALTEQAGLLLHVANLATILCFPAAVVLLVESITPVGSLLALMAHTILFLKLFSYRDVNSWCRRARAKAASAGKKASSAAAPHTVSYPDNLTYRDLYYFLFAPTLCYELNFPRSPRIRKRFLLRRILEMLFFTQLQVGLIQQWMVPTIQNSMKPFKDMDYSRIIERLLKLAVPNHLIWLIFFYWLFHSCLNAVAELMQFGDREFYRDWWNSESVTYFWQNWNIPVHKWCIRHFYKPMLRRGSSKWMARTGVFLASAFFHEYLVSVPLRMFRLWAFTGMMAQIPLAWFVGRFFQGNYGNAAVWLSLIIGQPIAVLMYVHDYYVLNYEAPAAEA

pIC50 [1] | pIC50 [2] | Structure (SMILES)
7.20 | – | O=C(Nc1ccc(-c2ccc(C(=O)[C@@H]3CCC[C@H]3C(=O)O)cc2)cc1)Nc1ccc2c(c1)OCO2
– | 7.01 | O=C(Nc1ccccc1)Nc1ccc(-c2ccc(C(=O)[C@@H]3CCC[C@@H]3C(=O)O)cc2)cc1
– | 7.02 | O=C(Nc1ccccc1)Nc1ccc(-c2ccc(C(=O)[C@H]3CCC[C@@H]3C(=O)O)cc2)cc1
